From paper PMC4873368 (Cancer research, 2016)

Experiments:
human T cells [1] = assay: ConA-induced T cell expansion from human PBMCs; assay type: cell-based; details: 168 h, read-out: EC50 T cells
A2780 cells = assay: A2780 cell proliferation screen; assay type: cell-based; details: Homo sapiens, A2780, 72 h, read-out: EC50 A2780
human T cells [2] = assay: Human T cell proliferation with aAPCs; assay type: cell-based; details: human PBMCs, 7 days
MEK = assay: Brpkp110 cells MEK signaling, Western blot; assay type: cell-based, mouse; details: 8 nM or 200 nM trametinib, 18 hr
Brpkp110 tumors = details: trametinib 1.0 mg/kg oral gavage days 3-13, single intervention
human T cells [3] = assay: Cytokine rescue of human T cell proliferation from trametinib; assay type: cell-based; details: aAPCs, 200 nM trametinib, 7 days; IL-2 20 U/ml, IL-7 2 ng/ml, IL-15 10 ng/ml, IL-21 100 ng/ml, IL-27 50 ng/ml, ALT-803 35.7 ng/ml
ERK1/2 phosphorylation = assay: TCR ligation of human CD8 T cells, Western blot p-ERK1/2; assay type: cell-based; details: within 10 minutes post-activation, trametinib 8 nM

| EC50 (human T cells [1]) [nM] | EC50 (A2780 cells) [nM] | Molecule | other results |
| --- | --- | --- | --- |
| 61 | – | CN(C)CC[C@H](CSc1ccccc1)Nc1ccc(S(=O)(=O)NC(=O)c2ccc(N3CCN(Cc4ccccc4-c4ccc(Cl)cc4)CC3)cc2)cc1[N+](=O)[O-] [ABT-737] | – |
| – | > 25000 | CN1CCN(CCOc2cc(OC3CCOCC3)c3c(Nc4c(Cl)ccc5c4OCO5)ncnc3c2)CC1 [AZD0530 (saracatinib), saracatinib] | – |
| – | > 25000 | CCN(CCCOc1ccc2c(Nc3cc(CC(=O)Nc4cccc(F)c4)n[nH]3)ncnc2c1)CCOP(=O)(O)O [AZD1152 (barasertib), barasertib] | – |
| – | > 25000 | Cn1cnc2c(F)c(Nc3ccc(Br)cc3Cl)c(C(=O)NOCCO)cc21 [AZD6244 (selumetinib), selumetinib] | – |
| – | > 25000 | Cc1cc([C@@H](C)Nc2ccccc2C(=O)O)c2nc(N3CCOCC3)cc(=O)n2c1 [AZD6482] | – |
| 13.6 | 78.3 | COc1ccc(-c2ccc3c(N4CCOC[C@@H]4C)nc(N4CCOC[C@@H]4C)nc3n2)cc1CO [AZD8055] | – |
| 2.4 | 21 | Cn1c(=O)n(-c2ccc(C(C)(C)C#N)cc2)c2c3cc(-c4cnc5ccccc5c4)ccc3ncc21 [BEZ235 (dactolisib), dactolisib] | – |
| 0.237 | 155 | COc1ncc(-c2ccc3nccc(-c4ccnnc4)c3c2)cc1NS(=O)(=O)c1ccc(F)cc1F [GSK2126458 (omipalisib), omipalisib] | – |
| 96 | 2350 | Cn1ncc(Cl)c1-c1cc(C(=O)N[C@H](CN)Cc2ccc(F)c(F)c2)oc1Cl [GSK2141795] | – |
| 25 | – | Cc1[nH]c2ccccc2c1CCNCc1ccc(/C=C/C(=O)NO)cc1 [LBH589 (panobinostat), panobinostat] | – |
| – | > 25000 | CN(C)C(=O)c1cc2cnc(Nc3ccc(N4CCNCC4)cn3)nc2n1C1CCCC1 [LEE011] | – |
| – | > 25000 | COc1cc(Nc2ncc3c(n2)-c2ccc(Cl)cc2C(c2c(F)cccc2OC)=NC3)ccc1C(=O)O [MLN8237 (alisertib), alisertib] | – |
| > 25000 | > 25000 | C[C@]1(O)C[C@@H](c2nc(-c3ccc4ccc(-c5ccccc5)nc4c3)c3c(N)nccn32)C1 [OSI-906 (linsitinib), linsitinib] | – |
| 110 | – | CC(=O)c1c(C)c2cnc(Nc3ccc(N4CCNCC4)cn3)nc2n(C2CCCC2)c1=O [PD0332991 (palbociclib), palbociclib] | – |
| – | > 25000 | CCCS(=O)(=O)Nc1ccc(F)c(C(=O)c2c[nH]c3ncc(-c4ccc(Cl)cc4)cc23)c1F [PLX4032 (vemurafenib), vemurafenib] | – |
| – | – | IL-15: Recombinant human IL-15 (Novoprotein) | Rescue of human T cell proliferation in the presence of trametinib (human T cells [3]): able to individually rescue the proliferation; Rescue of TCR-induced ERK1/2 phosphorylation from MEK inhibition (ERK1/2 phosphorylation): can rescue |
| – | – | IL-21: human IL-21 cytokine | Rescue of human T cell proliferation in the presence of trametinib (human T cells [3]): no significant rescuing effect |
| – | – | IL-7: mouse IL-7 (Peprotech) (protein, UniProt P10168 26-154, looked up) Interleukin-7: ECHIKDKEGKAYESVLMISIDELDKMTGTDSNCPNNEPNFFRKHVCDDTKEAAFLNRAARKLKQFLKMNISEEFNVHLLTVSQGTQTLVNCTSKEEKNVKEQKKNDACFLKRLLREIKTCWNKILKGSI | Rescue of human T cell proliferation in the presence of trametinib (human T cells [3]): able to individually rescue the proliferation |
| – | – | IL-27: human IL-27 (eBioscience) (protein, UniProt Q8NEV9 29-243; Q14213 21-229, looked up) Interleukin-27 subunit alpha: FPRPPGRPQLSLQELRREFTVSLHLARKLLSEVRGQAHRFAESHLPGVNLYLLPLGEQLPDVSLTFQAWRRLSDPERLCFISTTLQPFHALLGGLGTQGRWTNMERMQLWAMRLDLRDLQRHLRFQVLAAGFNLPEEEEEEEEEEEEERKGLLPGALGSALQGPAQVSWPQLLSTYRLLHSLELVLSRAVRELLLLSKAGHSVWPLGFPTLSPQP Interleukin-27 subunit beta: RKGPPAALTLPRVQCRASRYPIAVDCSWTLPPAPNSTSPVSFIATYRLGMAARGHSWPCLQQTPTSTSCTITDVQLFSMAPYVLNVTAVHPWGSSSSFVPFITEHIIKPDPPEGVRLSPLAERQLQVQWEPPGSWPFPEIFSLKYWIRYKRQGAARFHRVGPIEATSFILRAVRPRARYYVQVAAQDLTDYGELSDWSLPATATMSLGK | Rescue of human T cell proliferation in the presence of trametinib (human T cells [3]): no significant rescuing effect |

| Molecule | EC50 (human T cells [1]) [nM] | EC50 (A2780 cells) [nM] | other results |
| --- | --- | --- | --- |
| CC(=O)Nc1cccc(-n2c(=O)n(C3CC3)c(=O)c3c(Nc4ccc(I)cc4F)n(C)c(=O)c(C)c32)c1 [GSK1120212 (trametinib), trametinib] | – | > 25000 | Proliferation of human T cells in response to aAPC coated with agonistic CD3 and CD28 antibodies (human T cells [2]): Comparable results; Signaling through MEK in Brpkp110 cells (MEK): can be inhibited; Growth of Brpkp110 tumors (Brpkp110 tumors): significantly reduced the growth |
